These results are taken from patent US20030144194A1, “Cancer treatment and prognosis” (priority 2000, published 2003).

The subject of test [1] is HES-1. The experiment in a line: Western blot of HES-1 protein in nuclear extracts of breast cancer cell lines. Type of test: cell-based. The note with it: for effect on 17β-estradiol-mediated down regulation of HES-1 protein: antiestrogen together with 17β-estradiol, FIG. 1C. The method, then:
FIG. 1(B) Regulation of HES-1 by 17β-estradiol in breast cancer cell lines; 50 μg of nuclear extract protein was used;
(§1) T47D cells were cultured in a 1:1 mixture of Hams F 12 and DME with 10% fetal bovine serum, MCF-7, MDA-MB-231 and COS-7 cells were cultured in DME with 10% fetal bovine serum. Before experiments with estrogen, the media were switched and phenol red free and DCC charcoal treated with serum were used. Culture conditions were set at 37° C., 5% CO2 and 100% humidity. For creation of tetracycline inducible stably transfected clones the tet-regulated expression system from Bibco BRL was used. A puromycin resistance gene was cloned into pTet TAk. T47D cells were then transfected with lipofectin (GibcoBRL) according to the manufacturer's instructions. Transfectants were selected with puromycin at 1 μg/ml. […] Transfectants were selected using G418 (Calbiochem) at 500 μg/ml. Cells lines stably transfected with tetracycline regulated expression constructs were grown in the presence of 1 μg/ml of tetracycline. At the time of induction the medium was removed and the cells were washed with PBS two times before adding new medium without tetracycline.
Nuclear extract and RNA preparation was carried out according to the protocol by Schreiber et al (E. Schreiber, et al., Nucleic Acids Res 17, 6419 (1989)) except that PBS was used instead of TBS and the following inhibitors were added: leupeptin at 1 μg/ml, PMSF at 0.2 mM, […] Na3VO4, 1 mM NaPPi, 1 mM NaF, 100 μM Na2MO4 (all from Sigma). Nuclear extracts were prepared from cells grown to a confluency of 60%-70% on a 150 mm culture dish. Protein content was determined by Bradford assay (BioRad).
(§2) Two peptides with identical sequence parts of HES-1 protein were synthesised and simultaneously injected into one rabbit (Genosys). The peptides were […] […] and […]. For Western blots, 100 μg of nuclear extract was separated on a 12% SDS-PAGE. Western blot analysis was performed according to standard protocols (Harlow and Lane, E. Harlow, and D. Lane, Cold Spring Harbour Laboratory Press, Cold Spring Harbour, N.Y., (1988)). HES-1 antibody was used at a dilution of 1:1000. The PCNA (C-10) antibody was from Santa Cruz and used at 1:1000. Donkey, anti-rabbit and sheep anti-mouse IgG HRP conjugated antibody (Amersham) were used at 1:10000. Antibody binding was visualised using ECL, Super Signal (Pierce).

A further test relates to T47D breast cancer cells. In words: Proliferation assay, T47D cells stably transfected with tetracycline regulated FLAG HES-1 expression. Type of test: cell-based. As to the method: (§3) FIG. 2 illustrates a proliferation assay T47D cells stably transfected with tetracycline regulated FLAG HES-1 expression. (A) Relative proliferation of two different clones HES-1(1) and HES-1(2) with inducible FLAG HES-1 expression, and two control clones. Tetracycline at 1 μg/ml and 17β-estradiol at 10 nM were used when stated. Data represents an average of six independent measurements. (B) Western blot of endogenous HES-1 and FLAG HES-1 expression in HES-1(1) and HES-1(2) cell lines with antibody against HES-1. PCNA Western blot on same extracts 50 μg of nuclear protein was used;
as §1
A proliferation determination kit from BioThema (A. Lundin, Methods Enzymol 305, 346-370 (1999)). The kit is based on measuring ATP and since the ATP level is constant between cells this can be used to evaluate the number of cells. The cells were grown on 24 well plates at 1000 cells/well. Treatment with hormone was in phenol red-free medium supplemented with 10% DCC treated fetal calf serum. […] Luciferase activity was measured using a Berthold luminometer.

Test [2] deals with proliferating cell nuclear antigen (PCNA). The experiment in a line: PCNA Western blot on nuclear extracts of tet-regulated FLAG HES-1 T47D cells. Type of test: cell-based. As to the method: as §3, §2
A general note: Immunoblotting shows a protein as a band on a membrane.

Another test has as its system histone acetylation. The note with it: MCF-7 breast cancer cells, Pasqualini et al (1989); cited from earlier work.
For test [3], the target named is T1, estrogen receptor α (ERα) (Homo sapiens, UniProt P03372).
T1 construct: FLAG; expressed in transfected cells; host or cells: COS-7
T1 sequence (P03372 1-595): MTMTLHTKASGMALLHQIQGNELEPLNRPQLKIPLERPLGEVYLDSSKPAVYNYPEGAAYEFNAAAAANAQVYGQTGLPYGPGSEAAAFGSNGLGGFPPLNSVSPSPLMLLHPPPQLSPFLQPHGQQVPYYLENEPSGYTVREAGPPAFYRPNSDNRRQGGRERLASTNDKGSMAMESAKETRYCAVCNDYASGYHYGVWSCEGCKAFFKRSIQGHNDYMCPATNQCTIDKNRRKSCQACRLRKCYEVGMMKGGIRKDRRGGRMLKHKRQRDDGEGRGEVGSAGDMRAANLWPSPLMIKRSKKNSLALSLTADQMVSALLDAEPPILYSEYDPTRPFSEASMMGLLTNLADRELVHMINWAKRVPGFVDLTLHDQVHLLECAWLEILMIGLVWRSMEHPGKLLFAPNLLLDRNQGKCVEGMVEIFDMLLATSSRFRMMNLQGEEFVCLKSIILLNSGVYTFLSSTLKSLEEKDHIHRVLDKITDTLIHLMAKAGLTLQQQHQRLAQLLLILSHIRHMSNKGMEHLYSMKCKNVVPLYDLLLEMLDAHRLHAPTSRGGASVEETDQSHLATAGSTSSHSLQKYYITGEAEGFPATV
In words: ERE TATA LUC reporter in COS-7 cells transfected with ERα. Type of test: cell-based. The method, then:
FIG. 5. Transfection of COS-7 cells with 3X ERE TATA LUC 1 μg and 100 ng of pcDNA3 FLAG ERα.
FIG. 8. Transient transfection of COS-7 cells using the ERE reporter vector ERE TATA LUC and expression vectors FLAG ERα and FLAG HES-1 and treated with E2 and the histone deacetylase inhibitor Trichostatin A (TSA).
Human ERα was epitope tagged with the artificial “FLAG” epitope using PCR cloning. The VP16 activation domain was fused to the N-tenninus of rat HES-1.

The next test has as its target T2, ERβ (Homo sapiens, UniProt Q92731).
T2 construct: FLAG; expressed in transfected cells; host or cells: COS-7
The experiment in a line: ERE TATA LUC reporter in COS-7 cells transfected with ERβ. In kind it is cell-based. To be noted: FIG. 9. The text has this: FIG. 9. Transient transfection of COS-7 cells using the ERE reporter vector ERE TATA LUC and expression vectors FLAG […] and FLAG HES-1 and treated with E2 and the histone deacetylase inhibitor Tricostatin A (TSA).

The test system of a further test is CMV promoter. To be noted: L. D. Dion et al., Virology 231 (1997); cited from earlier work.
Test [4] relates to HES-1. The experiment in a line: All-trans retinoic acid effect on 17β-estradiol-dependent down regulation of HES-1 expression in MCF-7 cells (Western blot). To be noted: 1 μM all-trans retinoic acid, 17β estradiol 0.1 and 1 nM, 3 days. Type of test: cell-based. The method, then: MCF-7 cells were grown on 150 mm plates to 70% confluency in DME medium supplemented with 10% FBS. The medium was then changed to phenolAred free DME supplemented with DCC treated FBS to which 17β estradiol 0.1 and 1 nM respectively and 1 μM of all-trans retinoic acid was added individually or in combination. The plates were then incubated for 3 days in a humidified incubator at 37° C. and 5% CO2. Nuclear extract was produced according to Schreiber et al (E. Schreiber et al (1989) Nucleic Acids Res 17: 6419). 50 μg of this nuclear extract was then run on SDS-PAGE and blotted over to nitrocellulose membrane Hybond C super (Amersham). HES-1 protein was then detected using HES-1 antibody.

T2 sequence (Q92731 whole entry, species assumed): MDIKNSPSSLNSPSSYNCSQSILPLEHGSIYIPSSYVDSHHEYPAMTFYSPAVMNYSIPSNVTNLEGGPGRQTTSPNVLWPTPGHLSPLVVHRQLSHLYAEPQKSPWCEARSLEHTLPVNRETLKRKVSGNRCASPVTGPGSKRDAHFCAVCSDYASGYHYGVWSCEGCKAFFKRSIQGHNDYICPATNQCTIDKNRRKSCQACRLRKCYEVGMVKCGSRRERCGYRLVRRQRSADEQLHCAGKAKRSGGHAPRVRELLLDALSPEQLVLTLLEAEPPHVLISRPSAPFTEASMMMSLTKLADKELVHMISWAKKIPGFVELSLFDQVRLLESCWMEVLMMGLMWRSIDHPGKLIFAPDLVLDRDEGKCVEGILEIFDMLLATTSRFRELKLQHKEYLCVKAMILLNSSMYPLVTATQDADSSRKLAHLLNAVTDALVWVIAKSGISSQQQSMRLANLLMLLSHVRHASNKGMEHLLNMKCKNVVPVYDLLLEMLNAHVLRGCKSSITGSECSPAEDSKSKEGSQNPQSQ

Turning to `C[C@]12CC[C@@H]3c4ccc(O)cc4C[C@@H](CCCCCCCCC[S+]([O-])CCCC(F)(F)C(F)(F)F)[C@H]3[C@@H]1CC[C@@H]2O` (stereo partly drawn) [ICI 182,780], the “effect on 17β-estradiol-mediated down regulation of HES-1 protein” value (“effect … of HES-1 protein” below) in the test on HES-1 [1] is “prevented”.
Turning to `O=C(c1ccc(OCN2CCCCC2)cc1)c1c(-c2ccc(O)cc2)sc2cc(O)ccc12` [raloxifen], in the test with HES-1 [1], the “effect … of HES-1 protein” value was “prevented”.
`CC/C(=C(\c1ccc(O)cc1)c1ccc(OCCN(C)C)cc1)c1ccccc1` [4OH tamoxifen]: in the test with HES-1 [1], the “effect … of HES-1 protein” value was “prevented”.
For the compound `C[C@]12CC[C@@H]3c4ccc(O)cc4CC[C@H]3[C@@H]1CC[C@@H]2O` [17β-estradiol], the “expressed protein levels of HES-1” value with HES-1 [1] (MCF-7 breast cancer cells) and in the test on HES-1 [1] (T47D breast cancer cells) was “suppress” throughout. In addition, in the test on HES-1 [1] (MDA-MB-231 breast cancer cells (lack ERα)), the “17β-estradiol-mediated suppression of HES-1” value was “lack of 17β-estradiol-mediated suppression”. The stimulation of proliferation entry with T47D breast cancer cells (absence of tetracycline (with induced HES-1 expression), 17β-estradiol 10 nM) was “no 17β-estradiol stimulated proliferation”; in the test with T47D breast cancer cells (presence of tetracycline (without induced HES-1 expression), 17β-estradiol 10 nM) it was “two-fold stimulation”; with T47D breast cancer cells (two control cell lines with tetracycline-regulated vector lacking FLAG-HES-1) it was “exhibited 17β-estradiol-stimulated proliferation”. The “regulation of proliferation marker PCNA” value was “upregulated twofold” in test [2] (absence of exogenous FLAG-HES-1 expression) and “no regulation” in test [2] (presence of exogenous FLAG-HES-1). The histone acetylation result in the test on histone acetylation is on record as “decreases”.
Turning to `CC(/C=C/C(=O)NO)=C\[C@@H](C)C(=O)c1ccc(N(C)C)cc1` [trichostatin A], in test [3] (COS-7 cells treated with 5 ng/ml trichostatin A for 8 hrs), the “makes 4OH tamoxifen into an effective agonist on ERE TATA LUC” value is given as “same result”. In addition, the “17β-estradiol response on addition of TSA together with HES-1” value in test [3] (COS-7 cells, ERα, FIG. 8) is on record as “much larger response”. Also, the “17β-estradiol response on addition of TSA in combination with HES-1” value on ERβ is reported as “no significant difference”. Besides, the CMV promoter activity entry in the test with CMV promoter is on record as “induce”.
Turning to `CC1=C(/C=C/C(C)=C/C=C/C(C)=C/C(=O)O)C(C)(C)CCC1` [all-trans retinoic acid], the “effect on 17β-estradiol-dependent down regulation of HES-1 expression” value in the test with HES-1 [4] is “inhibits”.
With `CCCC(=O)O.COc1cccc(C#CCON=C2CN3CCC2C3)c1` (stereo not drawn) [n-butyrate], the CMV promoter activity result with CMV promoter is given as “induce”.
